Source: paper PMC12475274, “Harnessing indole scaffolds to identify small-molecule IRE1α inhibitors modulating XBP1 mRNA splicing” (Nature Communications, 2025)
Several values for one entry are separate records, joined by “and”; a condition that tells them apart may be missing. Equal entries are not always repeated. Where two headings read alike, the source gives them in different places.

Key:
A549 cells = assay: Cell viability assay (CCK-8), A549; type: cell-based, human; set-up: key to A549 viability: % viability vs DMSO-treated cells, blank-corrected A450; details: in % (unit assumed)
Procedure: (§1) Cells were collected and seeded into 96-well plates at a density of 2000–4000 cells per well and cultured overnight to allow cells to adhere. After adherence, cells were treated with the indicated compounds for 72 h. Then 20 μL CCK-8 solution (Vazyme, A311) was added into each well and incubated at 37 °C for 2–4 h. Absorbance was detected at a wavelength of 450 nm using a TECAN plate reader. Cell viability was calculated with the equation: Cell viability (%) = 100(Absorbance of treated cell - Absorbance of Blank control)/ (Absorbance of DMSO-treated cells - Absorbance of Blank control); Blank control: medium and CCK-8 solution, no cells.

HT-29 cells = assay: Cell viability assay (CCK-8), HT-29; type: cell-based, human; set-up: key to HT-29 viability: % viability vs DMSO-treated cells, blank-corrected A450; details: in % (unit assumed)
Procedure: as §1

HCT 116 cells = assay: Cell viability assay (CCK-8), HCT 116; type: cell-based, human; set-up: key to HCT 116 viability: % viability vs DMSO-treated cells, blank-corrected A450; details: in % (unit assumed)
Procedure: as §1

MDA-MB-468 cells = assay: Cell viability assay (CCK-8), MDA-MB-468; type: cell-based, human; set-up: key to MDMB-468 viability: % viability vs DMSO-treated cells, blank-corrected A450; details: in % (unit assumed)
Procedure: as §1

IRE1α (ERN1) = IRE1α (ERN1) (Homo sapiens, UniProt O75460); assay: LanthaScreen Eu kinase binding assay, IRE1α
Procedure: LanthaScreen^TM Eu kinase binding assays were conducted by SelectScreen Kinase Profiling Services (Thermo Fisher) using Alexa Fluor conjugated kinase tracer, tagged kinase protein, and Eu-labeled anti-tag antibody. The binding of the tracer to the kinase will form the tracer-kinase complex, resulting in a high FRET signal with the Eu-labeled anti-tag antibody. Displacement of the tracer by a kinase inhibitor led to a decreased FRET signal. […] Buffer A containing 50 mM HEPES pH 7.5, 0.01% BRIJ-35, 10 mM MgCl2, and 1 mM EGTA was used.
Kinase profiling was conducted by the SelectScreen Kinase Profiling Services (Thermo Fisher), using Z′-LYTE, Adapta, or LanthaScreen Eu Kinase Binding Assay for different kinases. The kinome phylogenetic tree was generated using the KinMap web portal.

[1] = molecular target: T1, dephosphorylated IRE1α (547–977) (Homo sapiens, UniProt O75460); assay: FRET-based IRE1α RNase activity assay, dephosphorylated IRE1α; type: biochemical
T1 construct: Human IRE1α kinase and RNase domain (residues 547–977) was subcloned into pLIB plasmid; His tag (with TEV cleavage site) (N, cleaved yes); made in house; host or cells: Sf9 insect cells, baculovirus (Bac-to-Bac)
Outline: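 Inhibition came from the linear-phase cleavage rate of 100 nM XBP1-sequence FAM/BHQ1 RNA, monitored at 485/535 nm over one hour and fitted to IC50. Enzyme: 40 nM unphosphorylated IRE1α kinase-RNase domain (547–977), exposed to compound for 30 min at room temperature before substrate, in HEPES pH 7.5 buffer.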

[2] = molecular target: T2, phosphorylated IRE1α (p-IRE1α) (Homo sapiens, UniProt O75460); assay: FRET-based IRE1α RNase activity assay, phosphorylated IRE1α; type: biochemical
T2 construct: Human IRE1α kinase and RNase domain (residues 547–977) was subcloned into pLIB plasmid; His tag (with TEV cleavage site) (N, cleaved yes); made in house; host or cells: Sf9 insect cells, baculovirus (Bac-to-Bac)
Outline: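 Cleavage of a dual-labeled XBP1 RNA (200 nM) was followed kinetically over 1 h at room temperature at 485/535 nm, with initial slopes giving percent inhibition and IC50. Enzyme was 4 nM phosphorylated human IRE1α 547–977 from insect cells, incubated with compound for 30 min before substrate; buffer 20 mM HEPES pH 7.5, KOAc, MgOAc2, DTT, Triton X-100.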

[3] = Conc. 50000 nM, duplicates, read-out: IRE1a Kinase Displacement(%)

Chain of IRE1α (ERN1) (O75460 19-977): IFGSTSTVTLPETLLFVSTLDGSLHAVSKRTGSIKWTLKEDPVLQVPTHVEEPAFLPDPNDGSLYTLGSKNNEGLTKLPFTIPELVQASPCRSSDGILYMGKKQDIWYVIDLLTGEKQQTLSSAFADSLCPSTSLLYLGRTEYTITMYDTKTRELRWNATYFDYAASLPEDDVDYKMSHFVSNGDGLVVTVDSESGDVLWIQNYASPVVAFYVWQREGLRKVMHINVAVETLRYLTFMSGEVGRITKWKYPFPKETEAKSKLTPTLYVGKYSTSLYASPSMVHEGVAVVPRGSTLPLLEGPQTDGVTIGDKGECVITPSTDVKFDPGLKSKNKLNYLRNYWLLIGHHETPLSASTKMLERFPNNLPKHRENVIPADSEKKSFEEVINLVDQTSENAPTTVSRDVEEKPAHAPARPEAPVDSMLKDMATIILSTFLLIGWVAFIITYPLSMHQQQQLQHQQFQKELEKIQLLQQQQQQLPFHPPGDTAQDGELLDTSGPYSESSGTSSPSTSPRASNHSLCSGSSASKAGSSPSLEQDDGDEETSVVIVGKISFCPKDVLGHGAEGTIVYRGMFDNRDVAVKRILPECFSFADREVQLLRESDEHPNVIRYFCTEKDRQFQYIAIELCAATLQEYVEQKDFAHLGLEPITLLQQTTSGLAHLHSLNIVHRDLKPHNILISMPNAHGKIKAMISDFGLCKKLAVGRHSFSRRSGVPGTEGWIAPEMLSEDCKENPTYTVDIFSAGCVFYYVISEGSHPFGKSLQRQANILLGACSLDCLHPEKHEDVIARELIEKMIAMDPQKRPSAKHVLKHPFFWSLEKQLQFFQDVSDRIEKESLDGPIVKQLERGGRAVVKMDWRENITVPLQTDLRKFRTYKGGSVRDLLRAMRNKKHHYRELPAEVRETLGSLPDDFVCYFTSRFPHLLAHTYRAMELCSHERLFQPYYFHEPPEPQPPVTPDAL
T1 sequence (O75460 547-977): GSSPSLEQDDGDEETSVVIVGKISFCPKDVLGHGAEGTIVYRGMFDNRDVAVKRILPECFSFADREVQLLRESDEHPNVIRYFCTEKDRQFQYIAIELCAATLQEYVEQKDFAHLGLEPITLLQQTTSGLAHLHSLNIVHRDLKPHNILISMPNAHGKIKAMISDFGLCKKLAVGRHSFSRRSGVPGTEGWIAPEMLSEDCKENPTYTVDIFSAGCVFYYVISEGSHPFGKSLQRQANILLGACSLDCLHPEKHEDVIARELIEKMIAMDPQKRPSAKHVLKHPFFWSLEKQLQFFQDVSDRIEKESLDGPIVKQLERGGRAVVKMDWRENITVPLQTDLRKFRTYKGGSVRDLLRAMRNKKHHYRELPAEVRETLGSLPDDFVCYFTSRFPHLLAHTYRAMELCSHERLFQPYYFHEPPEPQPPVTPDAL
T2 sequence (O75460 547-977): as above

SMILES | A549 viability (A549 cells; 0.205761 μM) | A549 viability (A549 cells; 0.617284 μM) | A549 viability (A549 cells; 1.85185 μM) | A549 viability (A549 cells; 5.55556 μM) | A549 viability (A549 cells; 16.6667 μM) | A549 viability (A549 cells; 50 μM) | HT-29 viability (HT-29 cells; 0.205761 μM) | HT-29 viability (HT-29 cells; 0.617284 μM) | HT-29 viability (HT-29 cells; 1.85185 μM) | HT-29 viability (HT-29 cells; 5.55556 μM) | HT-29 viability (HT-29 cells; 16.6667 μM) | HT-29 viability (HT-29 cells; 50 μM) | HCT 116 viability (HCT 116 cells; 0.205761 μM) | HCT 116 viability (HCT 116 cells; 0.617284 μM) | HCT 116 viability (HCT 116 cells; 1.85185 μM) | HCT 116 viability (HCT 116 cells; 5.55556 μM) | HCT 116 viability (HCT 116 cells; 16.6667 μM) | HCT 116 viability (HCT 116 cells; 50 μM) | MDMB-468 viability (MDA-MB-468 cells; 0.205761 μM) | MDMB-468 viability (MDA-MB-468 cells; 0.617284 μM) | further results
CCOC(=O)CCc1c(C)n(C(=O)c2ccccc2)c2ccc(Br)cc12 [Compound 105] | 96.121 and 99.380 and 106.104 | 98.783 and 101.411 and 97.532 | 93.780 and 103.281 and 111.131 | 105.404 and 106.621 and 106.322 | 96.476 and 98.393 and 111.165 | 100.539 and 103.017 and 106.219 | 113.182 and 110.499 and 118.448 | 123.469 and 111.597 and 102.062 | 133.369 and 110.621 and 100.802 | 113.223 and 102.896 and 116.984 | 110.519 and 102.367 and 115.540 | 128.693 and 87.059 and 105.213 | 105.479 and 107.511 and 97.213 | 103.773 and 98.693 and 112.553 | 103.848 and 104.852 and 99.659 | 103.874 and 100.174 and 105.429 | 102.870 and 107.248 and 108.126 | 80.557 and 78.801 and 90.315 | 105.638 and 111.110 and 96.794 | 104.047 and 105.002 and 96.794 | MDMB-468 viability (MDA-MB-468 cells; 1.85185 μM): 99.021 and 100.357 and 92.786; MDMB-468 viability (MDA-MB-468 cells; 5.55556 μM): 101.502 and 93.231 and 90.241; MDMB-468 viability (MDA-MB-468 cells; 16.6667 μM): 91.131 and 95.903 and 102.075; MDMB-468 viability (MDA-MB-468 cells; 50 μM): 78.343 and 88.459 and 92.404
Cc1c(CCC(=O)O)c2cc(Br)ccc2n1C(=O)c1ccccc1 [Compound 107] | 99.758 and 114.080 and 100.963 | 103.947 and 108.835 and 105.037 | 103.339 and 113.208 and 107.080 | 100.390 and 102.432 and 108.606 | 111.429 and 90.004 and 98.703 | 105.990 and 95.489 and 98.817 | 107.531 and 106.250 | 105.681 and 105.762 | 112.450 and 111.942 | 121.172 and 105.478 | 115.825 and 113.345 | 110.661 and 115.500 | 102.833 and 101.904 and 103.547 | 105.053 and 111.700 and 97.075 | 98.142 and 107.837 and 106.069 | 107.561 and 110.157 and 105.065 | 99.383 and 99.772 and 101.528 | 89.136 and 87.455 and 94.529 | 101.311 and 95.140 and 93.231 | 100.675 and 92.658 and 100.039 | MDMB-468 viability (MDA-MB-468 cells; 1.85185 μM): 97.239 and 104.174 and 86.869; MDMB-468 viability (MDA-MB-468 cells; 5.55556 μM): 97.876 and 87.887 and 96.349; MDMB-468 viability (MDA-MB-468 cells; 16.6667 μM): 85.214 and 82.224 and 83.624; MDMB-468 viability (MDA-MB-468 cells; 50 μM): 81.333 and 82.288 and 84.260
COc1ccc2c(c1)c(CCC(=O)O)c(C)n2C(=O)c1ccc(S(=O)(=O)F)cc1 [IA06] |  |  |  |  |  |  |  |  |  |  |  |  |  |  |  |  |  |  |  |  | inhibition at 50 µM (IRE1α (ERN1); 50 μM, read-out: kinase inhibition at highest tested concentration): 23%; inhibition at 50 µM (IRE1α (ERN1); [3]): 17%; IC50 ([1]; IRE1a IC50, individual replicates (n1-n4), FRET assay, source data, unit from Fig. 3 / sheet Fig. 2b): 9.65 µM and 7.76 µM and 4.55 µM; IC50 ([1]; IRE1α IC50, FRET assay, RNase activity, mean (± SEM)): 7.32 µM; IC50 ([2]; p-IRE1a IC50, individual replicates (n1-n4), FRET assay, source data, unit from Fig. 3): 11.1 µM and 6.78 µM and 5.45 µM; IC50 ([2]; p-IRE1α IC50, FRET assay, RNase activity, mean (± SEM)): 7.79 µM
COc1ccc2c(c1)c(CCC(=O)O)c(C)n2C(=O)c1cc2ccccc2s1 [IA10] |  |  |  |  |  |  |  |  |  |  |  |  |  |  |  |  |  |  |  |  | inhibition at 5.56 µM (IRE1α (ERN1); Conc. 5560 nM, duplicates, read-out: IRE1a Kinase Displacement(%)): 35%; inhibition at 16.7 µM (IRE1α (ERN1); Conc. 16700 nM, duplicates, read-out: IRE1a Kinase Displacement(%)): 63%; inhibition at 50 µM (IRE1α (ERN1); [3]): 58%; IC50 (IRE1α (ERN1); IRE1α kinase domain, read-out: IC50 (kinase binding), LanthaScreen Eu kinase binding): 9.61 µM; IC50 ([1]; FRET assay, dephosphorylated IRE1α, read-out: IRE1α IC50 (RNase activity)): 1.81 µM; IC50 ([1]; FRET assay, source data, unit from Fig. 3 / sheet Fig. 2b, read-out: IRE1a IC50, individual replicates (n1-n4)): 0.727 µM and 2.78 µM and 2.47 µM and 1.25 µM; IC50 ([2]; FRET assay, read-out: p-IRE1α IC50 (RNase activity)): 1.97 µM; IC50 ([2]; FRET assay, source data, unit from Fig. 3, read-out: p-IRE1a IC50, individual replicates (n1-n4)): 3.01 µM and 1.92 µM and 0.985 µM
